# Measured values from paper PMC8412337, “Alpha-single chains of collagen type VI inhibit the fibrogenic effects of triple helical collagen VI in hepatic stellate cells” (PLoS ONE, 2021).
# How the values were obtained:
# [1] = system: primary rat HSC; assay: FACS analysis of apoptosis (propidium iodide DNA content); assay type: cell-based; conditions: serum-starved primary rat HSC; text: within 24 hours, Fig 1C legend: 48 h; propidium iodide; three independent experiments
# Protocol: Activated HSC (third passage) were serum starved for 24 h in standard medium without FBS (starving medium), followed by dissociation with 500 μl 0.05% trypsin-EDTA (Biochrom, Berlin, Germany) and neutralization with 30 ml starving medium containing 1 g/l soybean trypsin inhibitor and 1 g/l ovalbumin. Alternatively, cells were scraped carefully with a cell-scraper (Costar, Cambridge, MA, USA) to exclude any potential effect of trypsin. After centrifugation at 800 x g for 10 min, cells were washed twice with 20 ml PBS (w/o Ca^2+, Mg^2+; Biochrom, Berlin, Germany), resuspended in starving medium and plated at a density of 1.5-2x10^6 in 1.7 ml starving medium in 6-well plates (NUNC, Wiesbaden, Germany). Cells were then treated with starving medium, soluble CI or CVI (both at a final concentration of 30 mg/l), or 10% FBS. For quantification of spreading, cells that had attached were counted 12 hours after plating and spreading efficiency was determined as percentage of plated cells in each group. De-novo DNA synthesis and apoptosis were assessed by morphological criteria, Cell death detection ELISA and FACS analysis as described below. […] After blocking the cells 1h with DMEM+1% FBS, the cells were incubated with primary antibodies against a-actin (Sigma-Aldrich, Taufkirchen, Germany, #A2547; dilution 1:200) and GFAP (Sigma-Aldrich, #G9269; dilution 1:20) followed by a washing step with PBS and the incubation with fluorescence-labeled secondary antibodies (Alexa Fluor 546 & Alexa Fluor 488, Molecular Probes, Eugene, USA, #A11030 & #A11034; dilution 1:100). […] Cells were analyzed by fluorescence microscopy (Zeiss, Jena, Germany; Kodak Ektachrome P1600 and a quantitative staining analysis was performed using Image J software (version 1.50i; National Institutes of Health, Bethesda, […], USA).
# 10^5 of freshly set cells were treated with starving medium, CI, CVI or 10% FBS for 24 or 48 hours as described before. […] Fixed cells were stained with propidium iodide (50 mg/l) in a final volume of 1 ml before being subjected to fluorescence activated cell sorting (FACS) analysis.
# [2] = system: primary rat HSC; assay: Cell Death Detection ELISA (oligonucleosomal DNA fragments); assay type: cell-based; conditions: OD of sample divided by OD of 10% FBS group, three independent experiments
# Protocol: 10^5 cells were seeded in 6-well plates and treated with starving medium or medium plus CI, CVI or 10% FBS. After 24 or 48 h floating and adherent cells were pooled, and lysed with 500 μl of 1% SDS, 10 mM Tris, pH 7.4 (lysis buffer), for 30 min at 4°C. Lysed cells were transferred to 1.5 ml Eppendorf tubes and centrifuged at 13,000 rpm for 20 min, to separate low molecular weight DNA (oligonucleosome-sized fragments derived from apoptotic cells) from high molecular weight DNA (from viable cells). 400 μl of the supernatant containing oligonucleosomes were transferred to another Eppendorf tube and diluted 1:5 with lysis buffer. 100 μl aliquots were used for the Cell Death Detection ELISA, which was performed according to the manufacturer’s instructions (Boehringer Mannheim, Germany). In brief, antibodies against histones were coated onto 96-wells, 100 μl lysate-samples containing oligonucleotides and histones were added and incubated for one hour. After washing, wells were incubated with anti-double strand DNA antibody coupled to peroxidase for one hour. After reaction with peroxidase substrate, absorbance was measured at 405 nm using an ELISA reader. Background values (lysis-buffer alone) were subtracted, and results are shown as enrichment factor [enrichment factor: OD (optical density) of the sample (apoptotic cells) divided by the OD of the corresponding control (viable cells, 10% FBS-group). A defined positive control was prepared using a hypertonic buffer, containing 10 mM Tris, 400 mM NaCl, 5 mM CaCl2 and 10 mM MgCl2, instead of starving medium.
# [3] = system: Bax and Bcl-2 in activated HSCs; assay: Western-blot analysis of Bax and Bcl-2; assay type: cell-based, rat; conditions: 24 hours culture after serum starvation; densitometry; three independent experiments
# Protocol: Dislodged cells were centrifuged at 800 x g/10 min and lysed with 100 μl lysis buffer. The protein concentration was determined using NanoOrange® Protein Quantitation Kit (Life Technologies) according to the manufacturer’s instructions. Briefly, protein solutions were mixed with the diluted NanoOrange reagent in 1.5 ml polypropylene tubes and heated at 95°C for 10 min in a thermomixer (Peqlab, Erlangen, Germany). Tubes were centrifuged and 200 μl of each sample were transferred to a black 96 well flat-bottom plate (Greiner BioOne, Frickenhausen, Germany). The emitted fluorescence was assessed at 570 nm in a SpectraMax Gemini EM (Molecular Devices, Biberach an der Riß, Germany). Protein concentrations were calculated from a bovine serum albumin standard curve. Equivalent amounts (10–50 μg) of protein were used in […]. Sample buffer (1:1) was added and the aliquots (20 μl final volume) were boiled for 5 min and subjected to 12% SDS-PAGE. After blocking for 1 h at room temperature in 10 mmol Tris-HCl, pH 7.5, 100 mmol NaCl, containing 0.1% Tween 20 and 3% bovine serum albumine (BSA), nitrocellulose-membranes were incubated either with polyclonal rabbit anti-rat antibodies to Bax (1:1000, sc-493), Bcl-2 (1:1000, sc783, both Santa Cruz, Santa Cruz, USA), α-actin (1:4000, A2547, Sigma) or β-actin (1:10,000, A5441, Sigma). Membranes were then washed in 10 mmol Tris-HCl, 100 mmol NaCl, 0.1% Tween 20, pH 7.5, and incubated with anti-rabbit IgG coupled to peroxidase (1:1000, A4416, Sigma) for 1 h at room temperature or directly developed (RC20H). Bands were detected with the ECL chemiluminescence reagent (Amersham-Pharmacia, Freiburg, Germany). After stripping in 0.1 M glycin-HCl, pH 2, for 20 min at room temperature, membranes were reprobed with appropriate primary and secondary antibodies. Band intensities were analyzed by densitometry and normalized to β-actin.
# [4] = system: primary rat HSCs; assay: [3H]-thymidine incorporation, de-novo DNA synthesis; assay type: cell-based; conditions: primary rHSCs; CVI at 10 μg/ml; within 24 hours; three independent experiments
# [5] = system: CVI-induced proliferation of CFSC; assay: Inhibition of CVI-induced proliferation by α3(VI)-derived 30-mer peptides, [3H]-thymidine incorporation; assay type: cell-based, rat; conditions: serum-starved CFSC; 100-fold molar excess of 30-mer peptide compared to CVI; 24 h; n = 4; p<0.05
# Protocol: (§1) 5x10^3CFSC in 100 μl 10% FBS were seeded into a 96-well flat-bottom tissue culture plate (Nunc, Roskilde, Denmark). After 24 hours, medium was completely removed, and cells were rinsed with 200 μl phosphate-buffered saline and 100 μl standard medium containing only 0.25% FBS were added. Cells were cultured for additional 24 h prior to treatment. Synchronized microcultures in 96-well plates were treated for 2 hours in reduction medium. When appropriate, the reduction medium was supplemented with 40 mg/l of α1(VI), α2(VI) or α3(VI). Then, 30 mg/l CVI or CI as control were added and cells were incubated for 24 h after which [^3H]-thymidine was added for additional 24 h. To assess effects of α3(VI)-derived 30-mer peptides on CVI-induced proliferation of CFSC, the reduction medium was supplemented with a 100-fold molar excess of the respective 30-mer peptides compared to CVI. [^3H]-thymidine incorporation was measured as described before. Cells treated with 150 mmol/l HAc or grown in 10% FBS served as negative and positive controls, respectively. During the last 4 hours of treatment, all cultures received 18.5 kBq [^3H]-thymidine (Amersham, Freiburg, Germany). Cells were fixed with 10% trichloroacetic acid and lysed by 200 mmol/l NaOH. After neutralization with 800 mmol/l HCl, lysates were collected to a glassfibre mat and the de-novo DNA synthesis was assessed by liquid scintillation (LKB Wallac, Bromma, Sweden) and the radioactive decay was counted (for) a minute (cpm).
# [6] = system: CFSC; assay: Fibrosis-associated gene expression, quantitative real-time PCR; assay type: cell-based, rat
# Protocol: 30 mg/l CVI, 133 mg/l of the monomeric alpha chains of CVI and/or TGF-β (2 ng/ml) were added after 24 h. […] Reverse transcribed complementary DNA templates were amplified by quantitative real-time polymerase chain reaction (PCR; Roche Diagnostics, Mannheim, Germany) using fluorogenic probes labeled with 6-carboxy-fluorescein and 6-carboxy-tetramethylrhodamin (Sigma- Genosys, Steinheim, Germany) and primer pairs (Invitrogen, Karlsruhe, Germany) specific for fibrosis-associated genes (for sequences see S2 Table). Gene expressions were normalized to glyceraldehyde phosphate dehydrogenase (GAPDH).
# [7] = system: CVI-induced proliferation of HSC; assay: Inhibition of CVI-induced proliferation by alpha single chains, [3H]-thymidine incorporation; assay type: cell-based, rat; conditions: 40 mg/l single chain, then 30 mg/l CVI; 24 h; primary rHSCs, n = three; Fig 4A legend: CFSC, n = 4
# Protocol: as §1
# [8] = system: 10% FBS-induced proliferation of HSC; assay: Inhibition of 10% FBS-induced proliferation by alpha single chains, [3H]-thymidine incorporation; assay type: cell-based, rat; conditions: cells grown in 10% FBS, Fig 4A
# Protocol: as §1
# [9] = CFSC, medium containing 0.2% FBS, S3 Fig, one out of two independent experiments
substance,measurement,setting,value
CI: Human collagen I isolated from placentas by pepsin digestion; served as a control,percentage of apoptotic cells (FACS),[1],80%
same,enrichment factor of oligonucleosomal fragments,[2]; after 24 hours,5
same,enrichment factor of oligonucleosomal fragments,[2]; after 48 hours,30
same,Bax to Bcl-2 ratio,[3],7.0
same,de-novo DNA synthesis ([3H]-thymidine incorporation),[4],little DNA incorporation
"DGDKGLPGSSGEKGNPGRRGDKGPRGEKGE [A5, α3(VI)-derived synthetic 30-mer peptide]",inhibition of CVI-induced proliferation,[5],no or weaker inhibitory activities
"DGYRGYPGDEGGPGERGPPGVNGTQGFQGC [A2, α3(VI)-derived synthetic 30-mer peptide]",inhibition of CVI-induced proliferation,[5],no or weaker inhibitory activities
"DKGPRGEKGERGDVGIRGDPGNPGQDSQER [A6, α3(VI)-derived synthetic 30-mer peptide]",inhibition of CVI-induced proliferation,[5],no or weaker inhibitory activities
"GAPGERGRTGPLGRKGEPGEPGPKGGIGNP [B6, α3(VI)-derived synthetic 30-mer peptide]",inhibition of CVI-induced proliferation,[5],no or weaker inhibitory activities
"GFPGEKGEVGEIGLDGLDGEDGDKGLPGSS [A4, α3(VI)-derived synthetic 30-mer peptide]",inhibition of CVI-induced proliferation,[5],strong growth inhibitory effects
"GIRGRRGNSGPPGIVGQKGRPGYPGPAGPR [C4, α3(VI)-derived synthetic 30-mer peptide]",inhibition of CVI-induced proliferation,[5],strong growth inhibitory effects
"GNPGQDSQERGPKGETGDLGPMGVPGRDGV [B1, α3(VI)-derived synthetic 30-mer peptide]",inhibition of CVI-induced proliferation,[5],strong growth inhibitory effects
"PPGLIGEQGISGPRGSGGARGAPGERGRTG [B5, α3(VI)-derived synthetic 30-mer peptide]",inhibition of CVI-induced proliferation,[5],no or weaker inhibitory activities
"RDGVGSEGRRGKKGERGFPGYPGPKGNPGE [C2, α3(VI)-derived synthetic 30-mer peptide]",inhibition of CVI-induced proliferation,[5],strong growth inhibitory effects
TGF-β [reference compound],time after which CI expression increased,[6]; [9],~ 8 h
same,time of maximum CI expression,[6]; [9],~ 24 h
same,reduction of the expression of MMP-3,"[6]; serum-starved CFSC, 24 h, TGF-β 2 ng/ml, CVI 30 mg/l, qPCR normalized to GAPDH",~ 70%
"VNGTQGFQGCPGQRGVKGSRGFPGEKGEVG [A3, α3(VI)-derived synthetic 30-mer peptide]",inhibition of CVI-induced proliferation,[5],strong growth inhibitory effects
α1(VI): monomeric alpha 1 single chain of collagen VI isolated from human placentas,"effect on CVI-induced expression of αSMA, CI and TGF-β","[6]; serum-starved CFSC, 30 mg/l CVI plus 133 mg/l monomeric alpha chain, 24 h, n = 4",some inhibitory effects
same,inhibition of DNA synthesis in the presence of CVI,[7],did not show any effect
same,effect on 10% FBS-induced proliferation,[8],had no effect
